Here are results for one compound from article PMC9825645 (Traffic (Copenhagen, Denmark), 2022).

For the assay, the target named is T1, AMPH-1 (Amphiphysin 1) (Caenorhabditis elegans, UniProt Q21004).
T1 sequence (Q21004 1-461): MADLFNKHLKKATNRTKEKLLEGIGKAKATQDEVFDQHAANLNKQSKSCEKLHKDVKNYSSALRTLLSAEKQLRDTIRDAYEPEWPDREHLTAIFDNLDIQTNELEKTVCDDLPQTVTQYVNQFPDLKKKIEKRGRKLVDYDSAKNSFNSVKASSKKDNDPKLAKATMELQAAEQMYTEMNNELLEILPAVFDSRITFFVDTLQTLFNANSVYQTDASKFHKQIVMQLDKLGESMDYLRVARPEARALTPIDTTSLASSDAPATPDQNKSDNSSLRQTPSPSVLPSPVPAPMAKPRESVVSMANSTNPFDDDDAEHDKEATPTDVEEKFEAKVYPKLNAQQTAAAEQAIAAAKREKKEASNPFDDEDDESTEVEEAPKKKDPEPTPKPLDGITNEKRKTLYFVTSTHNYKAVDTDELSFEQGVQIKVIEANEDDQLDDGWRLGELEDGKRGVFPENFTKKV
Put plainly: membrane fission of PS liposomes by burst analysis spectroscopy. In kind it is biochemical. Conditions: 0.5 mM GDP, 1 μM AMPH-1, 30 min; stimulates fission.

Turning to `Nc1nc2c(ncn2[C@@H]2O[C@H](COP(=O)(O)OP(=O)(O)O)[C@@H](O)[C@H]2O)c(=O)[nH]1` [GDP], the “membrane fission of PS liposomes by burst analysis spectroscopy” value is reported as “GDP stimulates fission to almost the same extent as seen in the presence of GTP”.
